In paper PMC12848680, “Microbial Cross-Talk: Unlocking the Cytochalasin Diversity from a Termite-Associated Xylaria” (JACS Au, 2025):
Values after ≈ are worked out from the molar mass of the structure shown. Like-named read-outs stand apart in the source and are kept apart here.

How the values were obtained:
[1] = in vitro; assay type: in vitro ADME, mouse; conditions: for half-life at 1 μM: 1 μM compound, pooled CD-1 mouse plasma, read-out: Mouse plasma t1/2
Experimental: Plasma stability assays: To determine stability in plasma, the compound (1 μM) was incubated with pooled CD-1 mouse plasma (Neo Biotech, Nanterre, France). Samples were taken by mixing aliquots with 4 volumes of cold internal standard solution (12.5 nM diphenhydramine in 10% methanol/acetonitrile). The plasma stability of procain, propantheline and diltiazem were determined in parallel to confirm the enzymatic activity. Samples were stored on ice until the end of the incubation and precipitated protein was removed by centrifugation (15 min, 4 °C, 4,000 g, two centrifugation steps). Concentration of the remaining test compound at the different time points was analyzed by HPLC-MS/MS (Vanquish Flex coupled to a TSQ Altis Plus, Thermo Fisher, Dreieich, Germany). […]

[2] = test system: CHO-K1 (chinese hamster ovary cells); assay: Cytotoxicity assay (MTT, 5 d) on CHO-K1; assay type: cell-based; conditions: Cricetulus griseus, CHO-K1, 120 h
Experimental: (§1) Cytotoxicity assay: A549 (human lung carcinoma cell line; ACC 107) and CHO-K1 (chinese hamster ovary cells; ACC 110) were obtained from the German Collection of Microorganisms and Cell Cultures (DSMZ) and cultured under the conditions recommended by the depositor. Cells were propagated in Dulbeccos’s Modified Eagle’s Medium (DMEM) and Ham’s F12 medium, respectively, supplemented with 10% fetal bovine serum (FBS), and seeded at 6×10^3 cells per well of 96-well plates in 120 μL of complete medium. After 2 h of equilibration (37 °C, 5% CO2), the cells were treated with a serial dilution of cytochalasins in 60 µL growth medium. Cytochalasins, doxorubicin as reference, as well as the solvent control were tested as duplicates in two independent experiments. After 5 d of incubation (37 °C, 5% CO2), a total of 20 μL of 5 mg/ml MTT (thiazolyl blue tetrazolium bromide) in phosphate -buffered saline (PBS) were added to each well […]
(§2) and the cells were further incubated for 2 h at 37 °C before the supernatant was discarded.
(§3) Subsequently, the cells were washed with 100 μL of PBS and treated with 100 μl of 2-propanol/10 N HCl (250:1) to dissolve formazan granules. Cell viability was measured as percentage relative to the respective solvent control by measuring the absorbance at 570 nm using a microplate reader (Tecan Infinite M200Pro). GraphPad Prism (version 10.0.3, GraphPad, Boston, MA, USA) was used for sigmoidal curve fitting to determine the IC50 values.

[3] = in vitro; assay type: in vitro ADME, mouse; conditions: for microsomal CLint: C57BL/6, mouse, microsomes; for half-life: mouse, read-out: Mouse liver microsome t1/2
Experimental: Assays in liver microsomes: For metabolic stability, the compound (1 μM) was incubated with 0.5 mg/mL pooled mouse (C57BL/6) microsomes (Xenotech, Kansas City, USA), 2 mM NADPH, 10 mM MgCl2 at 37 °C for 120 min on a microplate shaker. The metabolic stability of testosterone, verapamil and ketoconazole were determined in parallel to confirm the enzymatic activity of mouse/rat liver microsomes. The incubation was stopped after defined time points by precipitation of aliquots of the incubation mixture with 2 volumes of cold internal standard solution (15 nM diphenhydramine in 10% methanol/acetonitrile). Samples were stored on ice until the end of the incubation and precipitated protein was removed by centrifugation (15 min, 4 °C, and 4,000 g). Concentration of the remaining test compound at the different time points was analyzed by HPLC-MS/MS (Vanquish Flex coupled to a TSQ Altis Plus, Thermo Fisher, Dreieich, Germany) and used to determine half-life (t1/2). […]

[4] = test system: E. coli ΔacrB (JW0451-2); assay: Antibacterial activity against E. coli ΔacrB; assay type: cell-based; conditions: Escherichia coli, read-out: E. coli ΔacrB (JW0451-2) MIC
[5] = test system: A549 (human lung carcinoma cell line); assay: Cytotoxicity assay (MTT, 5 d) on A549; assay type: cell-based; conditions: for IC50: Homo sapiens, A549, 120 h, MTT, 5 d incubation; for Cytotoxic activity against A549 (in words): positive control doxorubicin
Experimental: as §1, §2, §3

[6] = test system: Staphylococcus aureus Newman; assay: Antibacterial activity against S. aureus Newman; assay type: cell-based; conditions: Table S22
[7] = Table 1, intrinsic clearance from microsomal metabolism data
[8] = Table 1, 1 μM compound, 0.5 mg/mL pooled C57BL/6 microsomes, 120 min
[9] = Table S22, intrinsic clearance calculated from microsomal metabolism data
[10] = Table S22, 1 μM compound, 0.5 mg/mL pooled C57BL/6 microsomes

Row | SMILES | half-life at 1 μM ([1]; Table 1) [min] | IC50 ([2]; Table 1, 5 d incubation) [µg/mL] | microsomal CLint [3, 7] [µL/min/mg] | half-life [3, 8] [min] | MIC [4] [µg/mL] | IC50 ([5]; Table 1) [µg/mL] | IC50 ([5]; Table S22) [µg/mL] | MIC [6] [µg/mL] | half-life at 1 μM ([1]; Table S22) [min] | IC50 ([2]; Table S22, 5 d incubation) [µg/mL] | microsomal CLint [3, 9] [µL/min/mg] | half-life [3, 10] [min] | Cytotoxic activity against A549 (in words) [5] | Mouse liver microsome t1/2 [3, 10] [min] | Compound remaining in mouse plasma ([1]; Table 1, at 240 min) [%] | Compound remaining in mouse plasma ([1]; Table S22, at 4 h)
1 | CC(=O)OC1C2OC2C(C)(O)C(=O)C(C)CC=CC2C3OC3(C)C(C)C3C(Cc4cccc(Br)c4)NC(=O)C213 (stereo not shown) [Compound 18, m-bromo-19,20-epoxycytochalasin Q] | > 240 | 0.94 ± 0.21 (≈ 1.56 µM) | 77 ± 19 | 19 ± 4 | > 64 | 0.19 ± 0.01 (≈ 0.315 µM) | 0.31 ± 0.01 (≈ 0.515 µM) | > 64 |  |  |  |  |  |  |  | 
2 | CC(=O)O[C@@H]1/C=C/[C@@](C)(O)C(=O)[C@@H](C)C/C=C/[C@H]2[C@H](O)C(C)=C(C)[C@H]3[C@H](Cc4ccccc4)NC(=O)[C@@]123 [Compound 2, cytochalasin C] |  |  |  |  | > 64 |  | 3.34 ± 0.92 (≈ 6.58 µM) | > 64 | > 240 | 1.48 ± 1.38 (≈ 2.92 µM) | 88 ± 7 | 15.8 ± 1.2 |  |  |  | 
3 | CC(=O)OC1C2OC2C(C)(O)C(=O)C(C)CC2OC2C2C3OC3(C)C(C)C3C(Cc4ccccc4)NC(=O)C132 (stereo not shown) [Compound 8, 19,20-epoxycytochalasin R] |  |  |  |  | > 64 |  | > 37 | > 64 | > 240 | 17.3 ± 8.94 (≈ 32 µM) | 37 ± 4 | 38 ± 4 |  |  |  | 
4 | CC1CC=CC2C3OC3(C)C(C)C3C(Cc4cccc(Br)c4)NC(=O)C23C(O)C2OC2C(C)(O)C1=O (stereo not shown) [Compound 19, m-bromo-deacetyl-19,20-epoxycytochalasin Q] |  |  |  |  | > 64 |  | > 37 | > 64 | > 240 | 0.63 ± 0.24 (≈ 1.12 µM) | 60 ± 4 | 23.1 ± 1.5 |  |  |  | 
5 | CC(=O)O[C@@H]1/C=C/[C@@](C)(O)C(=O)[C@@H](C)C/C=C/[C@H]2[C@@H]3O[C@]3(C)[C@@H](C)[C@H]3[C@H](Cc4cccc(Cl)c4)NC(=O)[C@@]312 [Compound 13, m-chloro-cytochalasin Q] |  |  |  |  | > 64 |  | 0.14 ± 0.02 (≈ 0.258 µM) | > 64 | > 240 | 0.41 ± 0.06 (≈ 0.756 µM) | 95 ± 15 | 15 ± 3 |  |  |  | 
6 | CC(=O)OC1C2OC2C(C)(O)C(=O)C(C)CC=CC2C(O)C(C)=C(C)C3C(Cc4cccc(Cl)c4)NC(=O)C213 (stereo not shown) [Compound 11, m-chloro-19,20-epoxycytochalasin C] | > 240 | 0.67 ± 0.53 (≈ 1.2 µM) | 52.7 ± 2.5 |  | > 64 | 0.04 (≈ 0.0717 µM) |  | > 64 |  |  |  | 26.4 ± 1.2 | lower nanomolar activities |  |  | 
7 | C#CCCC1(CCC(=O)OC2C(=C)C(C)C3C(Cc4ccccc4)NC(=O)C34C2C=CCC(C)C(=O)C(C)(O)C2OC2C4OC(C)=O)N=N1 (stereo not shown) [Compound 26, 7-diazirin-19,20-epoxycytochalasin D] |  |  |  |  | > 64 |  | 10.3 (≈ 15.3 µM) | > 64 | > 240 | 7.02 ± 1.16 (≈ 10.4 µM) | 1020 ± 120 | 1.4 ± 0.1 |  |  |  | 
8 | CC(=O)OC1C2OC2C(C)(O)C(=O)C(C)CC=CC2C(O)C(C)=C(C)C3C(Cc4ccccc4)NC(=O)C213 (stereo not shown) [Compound 3, 19,20-epoxycytochalasin C] | > 240 | 0.51 ± 0.27 (≈ 0.974 µM) | 31.6 ± 1.4 | 43.9 ± 2 | > 64 | 0.34 ± 0.13 (≈ 0.649 µM) |  | > 64 |  |  |  |  | comparable to the positive control |  |  | 
9 | CC1CC=CC2C3OC3(C)C(C)C3C(Cc4ccccc4)NC(=O)C23C(O)C2OC2C(C)(O)C1=O (stereo not shown) [Compound 7, deacetyl-19,20-epoxycytochalasin Q] |  |  |  |  | > 64 |  | 2.56 ± 0.94 (≈ 5.32 µM) | > 64 | > 240 | 3.78 ± 0.3 (≈ 7.85 µM) | 14 ± 3 | 102 ± 24 |  |  |  | 
10 | CC1=C(C)C2C(Cc3cccc(Br)c3)NC(=O)C23C(O)C2OC2C(C)(O)C(=O)C(C)CC=CC3C1O (stereo not shown) [Compound 17, m-bromo-deacetyl-19,20-epoxycytochalasin C] | > 240 | 0.49 ± 0.12 (≈ 0.874 µM) | 43 ± 4 | 32 ± 3 | > 64 | 0.14 ± 0.02 (≈ 0.25 µM) | 0.19 ± 0.02 (≈ 0.339 µM) | > 64 |  |  |  |  | lower nanomolar activities |  |  | 
11 | CC1CC=CC2C3OC3(C)C(C)C3C(Cc4ccccc4Br)NC(=O)C23C(=O)C2OC2C(C)(O)C1=O (stereo not shown) [Compound 20, o-bromo-19,20-epoxy-21-oxocytochalasin Q] |  |  |  |  | > 64 |  | 0.62 ± 0.04 (≈ 1.11 µM) | > 64 | > 240 | 1.38 ± 0.04 (≈ 2.47 µM) | 234 ± 28 | 6 ± 0.7 |  |  |  | 
12 | CC(=O)OC1C2OC2C(C)(O)C(=O)C(C)CC=CC2C(O)C3(C)OC3(C)C3C(Cc4ccccc4)NC(=O)C213 (stereo not shown) [Compound 27, 19,20-epoxycytochalasin N] | 133 ± 9 | 10.6 ± 1.42 (≈ 19.6 µM) | < 11.6 | > 120 | > 64 | 0.84 ± 0.04 (≈ 1.56 µM) |  | > 64 |  |  |  |  |  | >120 |  | 
13 | CC(=O)OC1C2OC2C(C)C(=O)C(C)CC=CC2C(O)C(C)=C(C)C3C(Cc4ccccc4)NC(=O)C213 (stereo not shown) [Compound 5, 18-desoxy-19,20-epoxycytochalasin C] | > 240 | 9.88 ± 7.69 (≈ 19.5 µM) | 132 ± 38 | 11 ± 3 | > 64 | 0.87 ± 1.38 (≈ 1.71 µM) |  | > 64 |  |  |  |  | comparable to the positive control |  | 74 ± 5 | >240 (74 ± 5% at 4 h)
14 | CC(=O)OC1C2OC2C(C)(O)C(=O)C(C)CC=CC2C3OC3(C)C(C)C3C(Cc4cccc(Cl)c4)NC(=O)C213 (stereo not shown) [Compound 14, m-chloro-19,20-epoxycytochalasin Q] |  |  |  |  | > 64 |  | 0.11 ± 0.05 (≈ 0.197 µM) | > 64 | > 240 | 0.69 ± 0.07 (≈ 1.24 µM) | 45.7 ± 1.6 | 30.4 ± 1.1 |  |  |  | 
15 | CC(=O)OC1C(C)=C(C)C2C(Cc3ccccc3)NC(=O)C23C1C=CCC(C)C(=O)C(C)(O)C1OC1C3OC(C)=O (stereo not shown) [Compound 23, 7-acetyl-19,20-epoxycytochalasin C] | > 240 | 15.7 ± 3.05 (≈ 27.7 µM) | 231 ± 36 | 6.1 ± 1 | > 64 | > 37 |  | > 64 |  |  |  |  | pronounced reduced activity |  |  | 
16 | C#CCCC1(CCC(=O)OC2C(C)=C(C)C3C(Cc4ccccc4)NC(=O)C34C2C=CCC(C)C(=O)C(C)(O)C2OC2C4OC(C)=O)N=N1 (stereo not shown) [Compound 25, 7-diazirin-19,20-epoxycytochalasin C] | > 240 | 14.2 ± 1.93 (≈ 21.2 µM) | 907 ± 388 | 1.7 ± 0.6 | > 64 | 24.9 (≈ 37.1 µM) |  | > 64 |  |  |  |  | pronounced reduced activity |  |  | 
17 | CC(=O)OC1C2OC2C(C)(O)C(=O)C(C)CC=CC2C3OC3(C)C(C)C3C(Cc4ccccc4)NC(=O)C213 (stereo not shown) [Compound 6, 19,20-epoxycytochalasin Q] |  |  |  |  | > 64 |  | 0.14 ± 0.02 (≈ 0.267 µM) | > 64 | > 240 | 0.72 ± 0.3 (≈ 1.38 µM) | 97 ± 24 | 15 ± 4 |  |  |  | 
